From patent US6884418B1, “Use of ligand-mimicking agents and anti-neoplastic drugs in cancer therapy” (Berlex Laboratories, Inc., priority 1989, dated 2005)

Columns and labels:
SKBR3 cells [1] = assay: MTT assay, SKBR3 cells; format: cell-based, human
Description: The MTT assay is generally used to assess cellular viability as a function of mitochondrial activity. The assay was used to examine effects of cisplatin with and without the c-erbB-2 monoclonal antibodies and was carried out as follows:
MTT was added for 4 hours and the crystals dissolved with isopropanol/0.04N HCI/0.3% SDS.

SKBR3 cells [2] = assay: Soft agar clonogenic assay, SKBR3; format: cell-based, human; conditions: 10 ng/ml cisplatin alone
Description: The effects of TAb 250 alone and in combination with cisplatin (CDDP) on growth of human tumor cells in soft agar was assessed. SKOV3 (6,000 cells per ml) or SKBR3 (12,000 cells per ml) were incubated in assay medium (DMEM:F12, University of California at San Francisco Cell Culture Facility), 10% dialyzed FBS 0.1 mM nonessential amino acids in solution obtained from Gibco, 1 mM sodium pyruvate and 10 mM HEPES) for 30 minutes at 37° C. with 1 or 10 μg/ml TAb 250. CDDP at concentrations of either 10 ng/ml for SKBR3 cells and 100 ng/ml for SKOV3 cells was then added and the incubation continued for 1.5 hours at 37° C. An equal volume of assay medium containing 0.8% Sea Plaque agarose and appropriate concentrations of TAb 250 and CDDP were combined with the cell mixture. Triplicate 1 ml aliquots were dispensed onto base layers of 0.8% agarose in assay medium containing the appropriate amounts of TAb 250, CDDP or both, in 35 mm dishes. After 14 days at 37° C./5% CO2 in a humidified chamber, viable colonies were stained for 24 hours with Nitro Blue tetrazolium dye (Sigma, 500 μg in 1 ml PBS). Stained colonies greater than 60 μ were scored positive using a FAS III Image Analysis System (Bausch and Lomb, Rochester, N.Y.). The data are expressed as a percentage of untreated control colonies formed. In control dishes, SKOV3 and SKBR3 cells formed 859+/−16 and 1107+/−72 colonies, respectively. […]

In the case of `N.N.O=C([O-])C1(C(=O)[O-])CCC1.[Pt+2]` [carboplatin, cis-diammine-1,1-cyclobutane dicarboxylate platinum], the cell proliferation (SKBR3 cells [1]; 16 μg of carboplatin alone) is reported as 63 % of control and the “synergistic response of the drug combined with TAb 250” value (SKBR3 cells [1]; MTT assay, carboplatin 16 μg, melphalan 20 μg) is reported as “synergistic effects”.
With `N.N.[Cl][Pt][Cl]` [cisplatin, cis-diamminedichloroplatinum] the “colony formation in soft agar” value (SKBR3 cells [2]) was “did not inhibit colony formation”, the cell growth (SKBR3 cells [1]; 1.0 μg of cisplatin alone) was 65 % of control and the “toxicity to the cells” value (SKBR3 cells [1]; 3.0 μg of cisplatin alone) was “highly toxic”.
With `N[C@@H](Cc1ccc(N(CCCl)CCCl)cc1)C(=O)O` [melphalan, 4-[bis(2-chloroethyl)amino] L-phenylalanine] the proliferation (SKBR3 cells [1]; 20 μg of melphalan alone) was 70 % of control.
